Laboratory results published in US20140142140A1, “PHARMACEUTICAL COMPOSITION FOR NEUROLOGICAL DISORDERS” (priority 2011, published 2014).

Experiments:
patients with PTSD = conditions: cited from earlier work
[1] = test system: patients with reading / learning difficulties; assay: Case reports, Reading Disorder (Example 2); type: in vivo, human
From the text: They noticed greater contrast when reading. This had reduced their dependency upon spectacles which they had relied on for many years. […] Patient described an unexpected improvement in the clarity and contrast of the words and letters, further commenting on the improvement in their ability to both see and comprehend the words simultaneously. Patient also described a reduction in the instability or movement of the words on the page which had always been experienced when reading. Also further commented on the subjective improvement in vision, with an apparent improved depth perception. […] Patient noticed greater contrast in the text when reading and this had reduced their dependency upon spectacles which they had relied on for many years. […] The patient has been able to sustain employment with considerable effort. Reading had always been effortful and largely unrewarding. Patient had described difficulties tracking along the text being frequently distracted by the lines above and below becoming lost on the page as well as having little recall or comprehension of what they had read.

[2] = test system: mood stabilisation or epileptic symptoms or events; conditions: per day; cited from earlier work
[3] = test system: patients with autism / ASD / communication disorder; assay: Case reports, Autism and other Pervasive Development Disorders (Example 6); type: in vivo, human; conditions: for communication, family relationships, behavioural disturbance: 1 mg daily increased to 3 mg in divided doses daily
From the text: Patient 6A: Adult, diagnosed in childhood with autism and ADHD. A long history of behavioural disturbance with frequent episodes of violence despite treatment with high-dose antipsychotic medication. […] The high-dose antipsychotic medication has been reduced without any associated loss of recent benefit. […] A history of behavioural disturbance and educational impairment. […] Patient 6C was an adult, diagnosed in childhood with autism and ADHD with a history of behavioural disturbance and educational impairment. […] Patient 6D: Adult, diagnosed in childhood with autism, ADHD and antisocial personality traits. […] Patient C's conversation became more appropriate and consistent together with reported improvements in significant relationships. […] Patient 6E was an adult, diagnosed with communication disorder and major depression. […] Patient 6F was an adult with ASD. […] The patient's conversation became more appropriate and consistent and improvements in significant relationships were reported. A reduction in the reliance on alcohol to alleviate anxiety in social situations was observed. […] Sodium valproate was withdrawn and improvement was noted. […] Patient 6G was as adult, diagnosed in childhood with ASD. […] Sodium valproate was withdrawn. […] This has also been associated with improvements in reading and verbal understanding. These benefits have been sustained in some situations for three years. Although difficult to be objective, there seems to be good evidence of ongoing improvement. […] Improvements in coordination, in fine and gross motor control have been reported and improvement in gait which frequently is a significant issue for individuals with autistic disorders.

## O=C1NC(=O)C(c2ccccc2)(c2ccccc2)N1 [phenyloin, 5,5-diphenylhydantoin]
Patients with PTSD; 300 mg per day in three doses, up to 400 mg/day, p<0.05
  increase in right brain volume: 6%
Patients with PTSD; 300 to 400 mg/day
  improvements in memory and cognition: did not achieve statistical significance
[1]; Patient 2A, 1 mg daily
  visual acuity / contrast when reading: visual acuity had appeared to improve
[1]; Patient 2A
  benefits at a higher dose: not sustained at a higher dose
[1]; Patient 2B, 1 mg sub lingual dose
  reading, pseudo word component of WAIT: improved ability to read
[1]; Patient 2B, dose increased to 50 mg
  benefits at increased dose: beneficial effects were lost
[1]; Patient 2C, 1 mg daily
  visual acuity / contrast in the text when reading: visual acuity had appeared to improve
[1]; Patient 2C
  benefits at a higher dose: not sustained at a higher dose
[1]; Patient 2D, 0.5 mg dose
  ability to read: significant improvement in their ability to read with less effort
[2]
  Minimum typical dose/day effective for mood stabilisation or treatment of epileptic symptoms or events: 200 mg
[3]; Patient 6A, autism and ADHD, single test dose sublingual 1 mg
  social interaction and conversation: immediate improvement noted in their ability to socially interact and sustain limited conversation
[3]; Patient 6A, 4 mg sustained release daily
  social interaction, home and day respite centre: improvement was consistently noted
[3]; Patient 6A, withdrawal and recommencement
  behaviour after withdrawal: return of the behavioural disturbance which abated on recommencement
[3]; Patient 6B
  communication, family relationships, behavioural disturbance: sustained improvement in communication and family relationships together with a reduction in behavioural disturbance
  improvements at a higher dose or withdrawn: Improvements were lost
[3]; Patient 6C
  communication, family relationships, behavioural disturbance: sustained improvement in communication and family relationships together with a reduction in behavioural disturbance
  improvements at a higher dose or withdrawn: improvements were lost
[3]; Patient 6D, 2 mg daily
  behaviour, verbal and non-verbal communication: Significant improvement in behaviour, verbal and non-verbal communication
[3]; Patient 6D, 4 mg
  benefit of increased dose: No additional benefit
[3]; autistic spectrum and social communication disorders, Ultra low dose, frequently below 5 mg
  non-verbal and verbal communication: frequent instant improvement in both their non-verbal and verbal communication
[3]; low dose
  duration of sustained benefits in some situations: three years
[3]; ultra low dose
  symptoms of Social Communication Disorder: significant improvements in many patients
